Assay results as given in US11845774B2, “Sterol derivatives and preparation method and uses thereof” (BEIJING PEKING UNIVERSITY WBL BIOTECH CO., LTD., priority 2011, dated 2023).

Tests used:
[1] = target: T1, HMG-CoA reductase (rat liver microsomes) (Rattus norvegicus, UniProt P51639); assay: Test of activity of inhibiting HMG-CoA reductase (rate of decline of OD340); format: biochemical; settings: final concentration in system 80 μg/mL
T1 construct: taking out liver of male rat, washing with KESD buffer solution; from tissue; host or cells: liver of male rat (microsomal fraction, glycerol/37 °C treatment, 35-50% ammonium sulfate fraction)
T1 sequence (P51639 1-887): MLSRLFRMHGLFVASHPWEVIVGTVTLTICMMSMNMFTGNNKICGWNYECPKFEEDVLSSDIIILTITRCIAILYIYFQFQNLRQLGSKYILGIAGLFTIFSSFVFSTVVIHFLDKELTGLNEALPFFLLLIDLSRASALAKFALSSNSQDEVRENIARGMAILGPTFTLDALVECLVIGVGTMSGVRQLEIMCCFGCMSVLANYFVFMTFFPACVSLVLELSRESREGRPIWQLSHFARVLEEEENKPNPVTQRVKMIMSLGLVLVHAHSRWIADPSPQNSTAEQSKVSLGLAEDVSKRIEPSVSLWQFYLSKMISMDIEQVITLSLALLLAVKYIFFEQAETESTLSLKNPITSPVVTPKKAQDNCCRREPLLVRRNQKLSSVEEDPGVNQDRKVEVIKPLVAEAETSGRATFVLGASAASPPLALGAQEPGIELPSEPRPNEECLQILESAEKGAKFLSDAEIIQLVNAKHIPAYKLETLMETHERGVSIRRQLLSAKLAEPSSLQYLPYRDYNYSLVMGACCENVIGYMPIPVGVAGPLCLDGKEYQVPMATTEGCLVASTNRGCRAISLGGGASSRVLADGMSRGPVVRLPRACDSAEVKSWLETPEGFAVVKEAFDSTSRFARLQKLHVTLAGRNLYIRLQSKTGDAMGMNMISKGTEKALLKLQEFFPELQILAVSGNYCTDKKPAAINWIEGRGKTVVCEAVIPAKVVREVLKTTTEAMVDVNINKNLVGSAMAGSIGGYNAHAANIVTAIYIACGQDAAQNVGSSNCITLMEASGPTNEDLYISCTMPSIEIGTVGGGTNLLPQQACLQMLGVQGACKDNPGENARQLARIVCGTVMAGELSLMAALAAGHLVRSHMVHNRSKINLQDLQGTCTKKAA
Method: Rat liver microsomes (HMG-CoA reductase), could be commercially available or prepared by the following preparation method: taking out liver of male rat, washing with KESD buffer solution, centrifuging under 1200 g for 15 minutes, collecting supernatant, then centrifuging under 105,000 g twice, 90 minutes for each time, and collecting centrifugation deposit. The centrifugation deposit was added with 8.3% of glycerol, heated with 37° C. bath for 1 hour. The crude product of rat liver microsomes was purified with saturated ammonium sulfate, and 35-50% of purified fraction was collected. The purified fraction obtained could be stored in −80° C. refrigerator.
Compound of Formula II was dissolved in 75% ethanol solution, with initial concentration of 8.0 mg/mL, and diluted in gradient manner, to reach 4.0 mg/mL, 2.0 mg/mL, 1.0 mg/mL; lovastatin was used as positive control, dissolved with 75% ethanol solution to reach concentration of 2.0 mg/mL; in the test system, total volume was 250 μL, concentrations of ingredients were separately: potassium chloride 200 mM, potassium dihydrogen phosphate 160 mM, ethylenediamine tetraacetic acid 4 mM, dithiothreitol 10 mM, […] and 3-hydroxy-3-methylglutary coenzyme A as two substrates separately had concentrations of: 200 μM and 50 μM, pH6.8, 30 μL of enzyme was added, 4 test groups were separately added with 10 μL of new compound solutions with different concentrations, the positive control group was added with 10 μL of lovastatin solution, the blank control group was added with 10 μL of 75% ethanol solution, and dynamitic changes of OD340 were detected with Versamax ELISA at 37° C. condition. The rate of decline of OD340 (expressed in slope value) as detected within 5 minutes was used to evaluate the activity of HMG-CoA reductase, and then to evaluate the activity of enzyme inhibitor and the results were shown in Table 2.

[2] = target: T2, Porcine pancreatic lipase (Sus scrofa, UniProt P00591); assay: Test of activity of inhibiting lipase (copper oleate colorimetry, olive oil substrate); format: biochemical, pig; settings: final concentration of inhibitor in the system 1.85 μg/mL
T2 construct: purchased Sigma
T2 sequence (P00591 1-450): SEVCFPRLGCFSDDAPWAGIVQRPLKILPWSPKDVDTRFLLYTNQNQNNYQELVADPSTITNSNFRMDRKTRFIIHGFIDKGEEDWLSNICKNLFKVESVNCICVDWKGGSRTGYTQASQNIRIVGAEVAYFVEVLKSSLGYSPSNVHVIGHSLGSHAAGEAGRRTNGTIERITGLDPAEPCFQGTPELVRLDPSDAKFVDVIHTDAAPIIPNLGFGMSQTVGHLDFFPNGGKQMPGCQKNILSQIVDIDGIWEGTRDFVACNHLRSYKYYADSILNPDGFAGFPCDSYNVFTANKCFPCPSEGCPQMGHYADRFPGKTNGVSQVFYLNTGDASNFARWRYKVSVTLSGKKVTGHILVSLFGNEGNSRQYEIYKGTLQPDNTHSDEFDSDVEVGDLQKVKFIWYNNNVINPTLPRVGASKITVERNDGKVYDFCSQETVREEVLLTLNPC
Method: 2.1 Preparation of light absorbance working curve for fatty acid: a series of oleic acid-toluene solutions with different concentrations (0-3.5 mmol/L, separately being 0, 0.225, 0.45, 0.675, 0.9, 1.125, 1.35, 1.8, 2.25, 2.7, and 3.5 mmol/L), 4 mL of each was taken and placed in conical flask, added with 1 mL of color developing agent, stirred with magnetic force for 3 minutes, oleic acid molecules and copper ions formed a green complex compound, after centrifugation, organic phase of upper layer was taken and measured at 714 nm to determine light absorbance.
2.2 Enzyme solution was 0.5 mg/mL pancreatic lipase solution; buffer solution was 0.07M NaH2PO4—K2HPO4 phosphate buffer solution (pH 7.0); color developing agent was 5% copper acetate solution, which was regulated with pyridine to have pH 6.1.
3 mL of 0.07M phosphate buffer solution and 1 mL of olive oil were pre-heated at a constant temperature of 37° C. for 5 minutes in water bath under agitation with a magnetic stirrer, added with 1.3 mL of enzyme solution (negative control was that without enzyme inhibitor; positive control is that added with 100 μL of 0.1 mg/mL orlistat solution; […]), stirred with magnetic force for 10 minutes, immediately added with 8 mL of toluene, stirred continuously for 2 minutes, the reaction was terminated, the generated oleic acid was extracted. The solutions were transferred to centrifuge tube, centrifuged under 4000 rpm for 10 minutes, and the organic phase and water phase were layered and clarified. 4 mL of the upper layer organic phase was taken and placed in a small conical flask, added with 1 mL of color developing agent, stirred with magnetic stirrer for 3 minutes, the generated oleic acid reacted with copper ions to form green complex compound. After centrifugation under 4000 rpm for 10 minutes, the upper layer of toluene solution containing copper oleate was taken, and measured with a spectrophotometer at 714 nm to determine its light absorbance. A blank solution without lipase was prepared as control by the same method, and concentration of fatty acid could be determined by referring to light absorbance working curve of oleic acid.
Enzyme activity unit of lipase was defined as follows: an enzyme amount to release 1 μmol fatty acid under certain condition was defined as 1 unit of lipase activity (U).
The following formula was used to calculate enzyme activity: X=(cV)/(tV′)
wherein: X represents enzyme activity of lipase, U/mL; c represents concentration of fatty acid, […]; V represents volume of fatty acid solution, mL; V′ represents amount of enzyme solution, mL; t represents action time, minute. Inhibition rate=[(enzyme activity of lipase−enzyme activity of lipase after inhibition)/enzyme activity of lipase]×100%

| Compound | Inhibition rate [1] [%] | Slope (rate of decline of OD340) ([1]; blank control slope 16.0) | Absorbance ([2]; 714 nm, blank control 0.6680) | Inhibition rate [2] [%] | Enzyme activity ([2]; blank control 1.69) [U/mL] | Concentration of generated oleic acid ([2]; blank control 2.75) [mM] |
| --- | --- | --- | --- | --- | --- | --- |
| CC[C@H](C)C(=O)O[C@H]1C[C@@H](C)C=C2C=C[C@H](C)[C@H](CC[C@@H]3C[C@@H](O)CC(=O)O3)[C@H]21 [Lovastatin, lovastatin, reference compound] | 54.4 | 7.3 | – | – | – | – |
| CCCCCCCCCCC[C@@H](C[C@@H]1OC(=O)[C@H]1CCCCCC)OC(=O)[C@H](CC(C)C)NC=O [Orlistat, orlistat, reference compound] | – | – | 0.2042 | 69.84 | 0.50 | 0.81 |
